Test results from the supplement of paper PMC4862054.

Legend:
Test in all cases: normalised response (% of control), CellTiter-Glo; higher = more viable cells (100 = DMSO, 0 = benzethonium chloride kill control)
Settings in all cases: incubation time: 72 h
CAL-120 = system: CAL-120
Outline: (§1)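 Each entry is the normalised signal at a single concentration within a series. The series comprised 5 concentrations in 10-fold steps over a compound-specific 10,000-fold range, placed in 384-well plates into which breast cancer cell lines were seeded as 20 µl suspension and incubated 72 h. CellTox Green (485/520 nm) fluorescence and then CellTiter-Glo luminescence were read, with signals normalised per plate to 0.1 % DMSO (100) and a positive kill control (0).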

Hs578T = system: Hs578T
Outline: as §1

MDA-MB-436 = system: MDA-MB-436
Outline: as §1

CAL-148 = system: CAL-148
Outline: as §1

MDA-MB-231 = system: MDA-MB-231
Outline: as §1

MFM-223 = system: MFM-223
Outline: as §1

HCC1599 = system: HCC1599
Outline: as §1

CAL-85-1 = system: CAL-85-1
Outline: as §1

CAL-51 = system: CAL-51
Outline: as §1

MDA-MB-453 = system: MDA-MB-453
Outline: as §1

HCC1143 = system: HCC1143
Outline: as §1

MDA-MB-468 = system: MDA-MB-468
Outline: as §1

HDQ-P1 = system: HDQ-P1
Outline: as §1

BT-549 = system: BT-549
Outline: as §1

DU-4475 = system: DU-4475
Outline: as §1

BT-474 = system: BT-474
Outline: as §1

HCC1937 = system: HCC1937
Outline: as §1

SK-BR-3 = system: SK-BR-3
Outline: as §1

MCF-10A = system: MCF-10A
Outline: as §1

SMILES	normalised response (CAL-120) [%]	normalised response (Hs578T) [%]	normalised response (MDA-MB-436) [%]	normalised response (CAL-148) [%]	normalised response (MDA-MB-231) [%]	normalised response (MFM-223) [%]	normalised response (HCC1599) [%]	normalised response (CAL-85-1) [%]	normalised response (CAL-51) [%]	normalised response (MDA-MB-453) [%]	normalised response (HCC1143) [%]	normalised response (MDA-MB-468) [%]	normalised response (HDQ-P1) [%]	normalised response (BT-549) [%]	normalised response (DU-4475) [%]	normalised response (BT-474) [%]	normalised response (HCC1937) [%]	normalised response (SK-BR-3) [%]	normalised response (MCF-10A) [%]
CCCCCCCCCCCCCCCCCCOP(=O)([O-])OC1CC[N+](C)(C)CC1 [Perifosine] (2.5 nM)	102	98.9	95.2	95.9	100	92.8	61.5	101	81	101	102	97.4	108	99.5	94.7	104	101	92.8	98.4
CO[C@H]1/C=C\C=C(/C)C(=O)NC2=CC(=O)C(NCCN(C)C)=C(C[C@@H](C)C[C@H](OC)[C@H](O)[C@@H](C)/C=C(\C)[C@@H]1OC(N)=O)C2=O [Alvespimycin] (1 nM)	100	101	104	112	102	105	102	97.8	112	113	97.5	107	102	95.6	105	120	91.6	105	106
NC(=O)Nc1cc(-c2cccc(F)c2)sc1C(=O)N[C@H]1CCCNC1 [AZD7762] (1 nM)	99.7	101	106	102	103	102	95.7	98.5	95.7	94.1	103	102	91.2	95.6	104	114	98.7	105	103
CN(C)/N=N/c1[nH]cnc1C(N)=O [Dacarbazine] (10 nM)	98.3	105	101	102	104	104	85.9	102	103	111	103	106	101	101	101	105	96.3		101
C#Cc1cccc(Nc2ncnc3cc(OCCOC)c(OCCOC)cc23)c1 [Erlotinib] (10 nM)	102	110	103	113	103	111	101	102	74.3	107	106	105	91.7	97.3	105	99.9	96		98.8
COc1cc2ncnc(Nc3ccc(F)c(Cl)c3)c2cc1NC(=O)/C=C/CN1CCCCC1 [Dacomitinib] (1 nM)	100	105	97.8	112	101	101	102	91.2	108	93.8	106	103	90.7	99.8	100	103	94.3		97.7
CC(=O)Nc1ccc(C(=O)Nc2ccccc2N)cc1 [Tacedinaline] (1 nM)	97.9	96	101	95.3	97.6	101	109	95.8	124	103	99.5	98.3	98.9	96.2	97.6	105	92.7	97.1	93.5
Cc1ccc(-n2nc(C(C)(C)C)cc2NC(=O)Nc2ccc(OCCN3CCOCC3)c3ccccc23)cc1 [Doramapimod] (10 nM)	94.5	101	98.1	80.3	96.3	89.5	103	96	121	85.8	98.3	94	95.5	99.3	98.3	93.5	91.7		90.7
CC(C)Cn1cnc2c(N)nc3ccccc3c21 [Imiquimod] (0.25 nM)	96.5	99	99.6	99.6	101	100	99.2	103	96.8	109	99.2	91.9	94.2	99	104	102	97.1	110	111
Clc1ccc(Nc2nnc(Cc3ccncc3)c3ccccc23)cc1 [Vatalanib] (10 nM)	96	100	107	109	104	102	89.6	100	127	104	102	102	102	95	106	105	102		105
Cn1c(Nc2ccc(C(F)(F)F)cc2)nc2cc(Oc3ccnc(-c4ncc(C(F)(F)F)[nH]4)c3)ccc21 [RAF265] (1 nM)	104	105	105	112	98.5	114	102	104	111	127	109	104	100	96.7	109	106	103		112
CC(C)Cn1cnc2c(N)nc3ccccc3c21 [Imiquimod] (2.5 nM)	103	111	95.8	107	103	105	113	98.4	114	104	103	104	97.2	95	109	104	96.2		105
CCC(C)(C)C(=O)O[C@H]1C[C@@H](C)C=C2C=C[C@H](C)[C@H](CC[C@@H]3C[C@@H](O)CC(=O)O3)[C@H]21 [Simvastatin] (10 nM)	96	96.3	98.1	103	99.2	102		96.2	115	98.3	98.7	103	103		104				108
CN(N=O)C(=O)N[C@@H](C=O)[C@@H](O)[C@H](O)[C@H](O)CO [Streptozocin] (10 nM)	100	104	98.1	108	104	108		98.9	77.4	106	105	114	102		106	109	109	102	105
CCC(C)(C)C(=O)O[C@H]1C[C@@H](C)C=C2C=C[C@H](C)[C@H](CC[C@@H]3C[C@@H](O)CC(=O)O3)[C@H]21 [Simvastatin] (1 nM)	100	103		102	94.8		111	96.8	114	106	102	100	98.5	98.9	102		103	105	107
CNCc1ccc(-c2[nH]c3cc(F)cc4c3c2CCNC4=O)cc1 [Rucaparib] (10 nM)	94.2	98.5	99.5	82.7	97.2	93.5	102	98.9	112	93.9	100	92.3	96.8	96.9	98.3	93.6	102		98.4
CS(=O)(=O)c1ccc(C2=C(c3ccccc3)C(=O)OC2)cc1 [Rofecoxib] (10 nM)	102	114	102	115	102	113	89	102	73	110	106	104	102	89.7	105	103	104		107
O=C(O)c1ccc(-c2c[nH]c3ncc(-c4ccccc4)cc23)cc1C1CCCC1 (10 nM)	95.3	99.6	95.1	90.4	94	94	108	96.3	105	91.8	102	96	95.9	98.7	99.2	91.8	101		95.9
COc1cc([C@@H]2c3cc4c(cc3[C@@H](O[C@@H]3O[C@@H]5CO[C@@H](C)O[C@H]5[C@H](O)[C@H]3O)[C@H]3COC(=O)[C@H]23)OCO4)cc(OC)c1O [Etoposide] (10 nM)	103	104	106	106	105	109	99.7	102	98.9	109	107	98.6	99.3	97.8	104	103	103		113
CCC1=C[C@@H]2CN(C1)Cc1c([nH]c3ccccc13)[C@@](C(=O)OC)(c1cc3c(cc1OC)N(C)[C@H]1[C@@](O)(C(=O)OC)[C@H](OC(C)=O)[C@]4(CC)C=CCN5CC[C@]31[C@@H]54)C2 [Vinorelbine] (10 nM)	96.6	101	94.4	107	101	106	84.7	98.1	87.5	80.7	97.5	95.8	99.4	97.6	101	99.3	99.1		102
CN[C@@H]1C[C@H]2O[C@@](C)([C@@H]1OC)n1c3ccccc3c3c4c(c5c6ccccc6n2c5c31)C(=O)N[C@H]4O [UCN-01] (10 nM)	80.2	92.4	106	108	81.1	102	94	95.1	106	91.8	95.9	97.3	96.6	98.4	101	83.8	94.3		90.5
